Measured values: PMC8550792, “Evolution of kinase polypharmacology across HSP90 drug discovery” (Cell Chemical Biology, 2021)

Key:
Test in all cases: biochemical
Format in all cases: biochemical
382 unique human kinases [1] = target: T1, 382 unique human kinases (Homo sapiens, UniProt Q02763, R849W); conditions: kinase TIE2 (R849W), compound 10 uM; for remaining activity at 10 µM: read-out: % Enzyme Activity (relative to DMSO controls)
T1 construct: purchased Reaction Biology (HotSpot contract assay)
T1 sequence (Q02763 23-1124 R849W): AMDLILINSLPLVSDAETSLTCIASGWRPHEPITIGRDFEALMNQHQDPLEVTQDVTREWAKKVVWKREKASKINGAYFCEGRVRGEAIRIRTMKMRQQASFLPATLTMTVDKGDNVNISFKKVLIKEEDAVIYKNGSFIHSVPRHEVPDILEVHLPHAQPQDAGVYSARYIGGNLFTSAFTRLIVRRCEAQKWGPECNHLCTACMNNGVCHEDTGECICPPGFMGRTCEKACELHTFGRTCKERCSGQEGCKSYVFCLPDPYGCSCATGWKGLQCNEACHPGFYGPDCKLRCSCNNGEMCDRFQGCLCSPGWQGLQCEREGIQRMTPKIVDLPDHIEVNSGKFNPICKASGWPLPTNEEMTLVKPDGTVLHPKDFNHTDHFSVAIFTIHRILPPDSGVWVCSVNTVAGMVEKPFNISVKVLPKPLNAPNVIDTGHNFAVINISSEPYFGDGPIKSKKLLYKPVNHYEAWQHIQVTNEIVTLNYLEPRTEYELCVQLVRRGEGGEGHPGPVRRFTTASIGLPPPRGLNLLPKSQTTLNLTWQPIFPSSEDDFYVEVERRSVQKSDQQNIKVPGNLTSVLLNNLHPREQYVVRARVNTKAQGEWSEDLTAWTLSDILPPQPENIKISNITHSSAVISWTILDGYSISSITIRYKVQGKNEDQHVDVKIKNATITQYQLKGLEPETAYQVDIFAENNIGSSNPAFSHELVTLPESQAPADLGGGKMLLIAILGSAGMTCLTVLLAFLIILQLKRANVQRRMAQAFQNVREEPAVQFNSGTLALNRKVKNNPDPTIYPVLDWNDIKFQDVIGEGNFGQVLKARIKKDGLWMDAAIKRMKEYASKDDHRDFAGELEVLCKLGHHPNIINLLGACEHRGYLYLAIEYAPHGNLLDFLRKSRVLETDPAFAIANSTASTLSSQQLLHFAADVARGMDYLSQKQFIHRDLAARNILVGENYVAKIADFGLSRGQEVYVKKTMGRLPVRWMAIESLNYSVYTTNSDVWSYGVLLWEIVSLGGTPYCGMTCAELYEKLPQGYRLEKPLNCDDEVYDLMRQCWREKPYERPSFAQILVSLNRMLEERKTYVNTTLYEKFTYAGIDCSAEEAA

382 unique human kinases [2] = target: T2, 382 unique human kinases (Homo sapiens, UniProt Q9UPZ9); conditions: kinase LCK2/ICK, compound 10 uM; for remaining activity at 10 µM: read-out: % Enzyme Activity (relative to DMSO controls)
T2 construct: purchased Reaction Biology (HotSpot contract assay)
T2 sequence (Q9UPZ9 1-632): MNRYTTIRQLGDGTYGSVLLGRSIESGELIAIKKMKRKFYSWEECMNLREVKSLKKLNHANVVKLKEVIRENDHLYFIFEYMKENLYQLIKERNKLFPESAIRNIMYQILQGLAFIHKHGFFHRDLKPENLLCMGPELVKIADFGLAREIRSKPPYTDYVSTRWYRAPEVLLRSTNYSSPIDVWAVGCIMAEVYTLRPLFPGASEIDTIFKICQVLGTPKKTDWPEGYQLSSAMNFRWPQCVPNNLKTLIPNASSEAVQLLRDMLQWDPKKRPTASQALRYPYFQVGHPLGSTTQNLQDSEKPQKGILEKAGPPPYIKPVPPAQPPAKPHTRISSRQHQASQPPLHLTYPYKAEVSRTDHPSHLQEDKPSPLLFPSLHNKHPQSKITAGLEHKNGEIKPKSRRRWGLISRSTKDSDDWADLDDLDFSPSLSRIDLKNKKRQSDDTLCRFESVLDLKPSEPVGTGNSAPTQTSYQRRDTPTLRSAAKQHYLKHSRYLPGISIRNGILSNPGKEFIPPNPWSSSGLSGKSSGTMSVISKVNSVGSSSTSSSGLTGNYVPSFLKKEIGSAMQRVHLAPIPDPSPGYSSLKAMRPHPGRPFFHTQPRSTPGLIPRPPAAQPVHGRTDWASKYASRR

382 unique human kinases [3] = target: T3, 382 unique human kinases (Homo sapiens, UniProt P21802, K526E); conditions: for remaining activity at 10 µM: read-out: % Enzyme Activity (relative to DMSO controls)
T3 construct: purchased Reaction Biology (HotSpot contract assay)
T3 sequence (P21802 22-821 K526E): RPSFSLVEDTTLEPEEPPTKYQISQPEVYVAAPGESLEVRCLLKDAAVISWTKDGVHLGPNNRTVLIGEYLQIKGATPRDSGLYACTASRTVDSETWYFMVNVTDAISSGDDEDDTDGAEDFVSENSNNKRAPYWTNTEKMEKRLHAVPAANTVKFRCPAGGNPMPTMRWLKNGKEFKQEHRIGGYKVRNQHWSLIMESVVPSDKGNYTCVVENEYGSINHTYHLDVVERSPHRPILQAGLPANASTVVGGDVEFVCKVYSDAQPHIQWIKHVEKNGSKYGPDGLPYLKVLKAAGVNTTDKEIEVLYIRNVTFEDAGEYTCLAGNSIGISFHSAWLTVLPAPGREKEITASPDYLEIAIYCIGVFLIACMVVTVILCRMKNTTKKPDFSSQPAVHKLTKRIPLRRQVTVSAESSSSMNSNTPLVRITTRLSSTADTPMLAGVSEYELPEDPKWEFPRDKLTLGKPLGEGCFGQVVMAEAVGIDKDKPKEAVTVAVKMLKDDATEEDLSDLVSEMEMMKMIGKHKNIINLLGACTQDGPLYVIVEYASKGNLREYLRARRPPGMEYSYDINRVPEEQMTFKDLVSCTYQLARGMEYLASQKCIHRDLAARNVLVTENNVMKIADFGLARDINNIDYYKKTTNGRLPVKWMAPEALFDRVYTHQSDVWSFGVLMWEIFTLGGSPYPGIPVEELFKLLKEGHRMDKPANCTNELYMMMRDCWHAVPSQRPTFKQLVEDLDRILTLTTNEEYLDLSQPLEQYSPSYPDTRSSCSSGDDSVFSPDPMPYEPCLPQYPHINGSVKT

382 unique human kinases [4] = target: T4, 382 unique human kinases (Homo sapiens, UniProt O43353); conditions: RIPK2, 10 uM; for remaining activity at 10 µM: read-out: % Enzyme Activity (relative to DMSO controls)
T4 construct: purchased Reaction Biology (HotSpot contract assay)
T4 sequence (O43353 whole entry): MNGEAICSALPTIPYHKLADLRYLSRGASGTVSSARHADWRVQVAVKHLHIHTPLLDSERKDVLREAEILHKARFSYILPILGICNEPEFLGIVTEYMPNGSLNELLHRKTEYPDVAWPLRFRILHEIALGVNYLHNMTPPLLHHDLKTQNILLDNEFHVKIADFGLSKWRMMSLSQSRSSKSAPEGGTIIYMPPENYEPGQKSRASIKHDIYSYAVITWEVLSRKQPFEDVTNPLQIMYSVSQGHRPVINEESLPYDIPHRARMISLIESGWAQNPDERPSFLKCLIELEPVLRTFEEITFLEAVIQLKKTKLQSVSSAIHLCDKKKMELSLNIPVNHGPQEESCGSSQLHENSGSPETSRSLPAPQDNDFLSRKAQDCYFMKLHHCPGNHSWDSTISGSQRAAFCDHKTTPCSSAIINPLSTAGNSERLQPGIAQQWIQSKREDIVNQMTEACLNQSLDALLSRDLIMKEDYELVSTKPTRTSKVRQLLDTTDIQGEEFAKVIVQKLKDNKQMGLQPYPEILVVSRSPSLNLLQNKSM

382 unique human kinases [5] = target: T5, 382 unique human kinases (Homo sapiens, UniProt P36888, D835Y); conditions: FLT3 (D835Y), [ATP] 20 µM, compound 10 uM; for remaining activity at 10 µM: read-out: % Enzyme Activity (relative to DMSO controls)
T5 construct: purchased Reaction Biology (HotSpot contract assay)
T5 sequence (P36888 27-993 D835Y): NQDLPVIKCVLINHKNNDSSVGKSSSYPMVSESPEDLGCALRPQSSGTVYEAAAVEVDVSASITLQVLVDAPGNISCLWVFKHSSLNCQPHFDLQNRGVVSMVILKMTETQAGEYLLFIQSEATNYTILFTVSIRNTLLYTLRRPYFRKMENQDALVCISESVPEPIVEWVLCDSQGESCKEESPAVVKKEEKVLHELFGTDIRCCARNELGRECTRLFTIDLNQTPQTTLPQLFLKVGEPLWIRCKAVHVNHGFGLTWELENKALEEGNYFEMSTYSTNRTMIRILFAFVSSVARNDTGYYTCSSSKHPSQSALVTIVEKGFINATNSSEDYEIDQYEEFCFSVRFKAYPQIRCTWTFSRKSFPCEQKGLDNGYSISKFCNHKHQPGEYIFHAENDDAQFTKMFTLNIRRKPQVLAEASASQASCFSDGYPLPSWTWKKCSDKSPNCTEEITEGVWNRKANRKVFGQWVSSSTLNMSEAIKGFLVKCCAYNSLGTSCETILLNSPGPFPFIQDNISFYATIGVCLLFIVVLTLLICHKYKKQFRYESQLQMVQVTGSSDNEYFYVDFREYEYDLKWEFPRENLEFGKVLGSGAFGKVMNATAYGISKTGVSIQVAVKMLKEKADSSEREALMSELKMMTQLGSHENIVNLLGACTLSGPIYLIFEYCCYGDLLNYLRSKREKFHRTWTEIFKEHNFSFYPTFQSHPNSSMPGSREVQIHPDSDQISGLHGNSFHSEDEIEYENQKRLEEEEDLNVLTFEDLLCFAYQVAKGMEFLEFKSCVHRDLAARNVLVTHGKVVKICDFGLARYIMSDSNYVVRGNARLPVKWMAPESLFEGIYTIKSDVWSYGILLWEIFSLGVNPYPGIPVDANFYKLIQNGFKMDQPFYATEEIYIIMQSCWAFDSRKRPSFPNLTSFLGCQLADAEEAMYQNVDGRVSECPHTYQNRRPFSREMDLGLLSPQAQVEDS

382 unique human kinases [6] = target: T6, 382 unique human kinases (Homo sapiens, UniProt Q07912); conditions: ACK1, [ATP] 100 µM, compound 10 uM; for remaining activity at 10 µM: read-out: % Enzyme Activity (relative to DMSO controls)
T6 construct: purchased Reaction Biology (HotSpot contract assay)
T6 sequence (Q07912 whole entry): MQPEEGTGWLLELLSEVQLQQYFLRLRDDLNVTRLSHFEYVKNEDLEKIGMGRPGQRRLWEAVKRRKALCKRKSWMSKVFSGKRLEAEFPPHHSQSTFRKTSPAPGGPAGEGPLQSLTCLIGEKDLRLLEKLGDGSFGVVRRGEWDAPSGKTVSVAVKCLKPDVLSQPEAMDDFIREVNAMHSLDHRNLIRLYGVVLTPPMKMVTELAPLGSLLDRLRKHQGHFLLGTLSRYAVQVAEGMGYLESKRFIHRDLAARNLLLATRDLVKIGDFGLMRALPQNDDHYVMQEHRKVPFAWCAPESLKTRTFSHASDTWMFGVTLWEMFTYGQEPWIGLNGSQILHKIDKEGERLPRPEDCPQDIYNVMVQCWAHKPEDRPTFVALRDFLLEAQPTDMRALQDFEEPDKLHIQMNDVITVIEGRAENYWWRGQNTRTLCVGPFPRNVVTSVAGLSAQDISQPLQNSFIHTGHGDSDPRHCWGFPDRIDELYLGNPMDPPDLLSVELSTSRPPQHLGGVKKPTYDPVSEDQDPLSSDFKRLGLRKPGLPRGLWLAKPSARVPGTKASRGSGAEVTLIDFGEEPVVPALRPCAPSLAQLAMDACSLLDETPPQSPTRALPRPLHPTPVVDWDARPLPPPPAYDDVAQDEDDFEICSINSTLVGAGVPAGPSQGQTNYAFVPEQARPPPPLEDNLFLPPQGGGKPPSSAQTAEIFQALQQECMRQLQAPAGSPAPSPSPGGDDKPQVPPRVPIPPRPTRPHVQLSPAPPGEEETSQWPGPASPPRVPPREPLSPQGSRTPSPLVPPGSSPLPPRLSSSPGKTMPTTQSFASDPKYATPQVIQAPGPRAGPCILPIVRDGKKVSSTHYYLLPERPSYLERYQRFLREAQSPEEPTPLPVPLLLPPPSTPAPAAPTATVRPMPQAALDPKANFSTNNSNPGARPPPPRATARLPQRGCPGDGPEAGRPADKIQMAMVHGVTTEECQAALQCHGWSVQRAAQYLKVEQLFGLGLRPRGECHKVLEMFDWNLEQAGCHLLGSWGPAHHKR

382 unique human kinases [7] = target: T7, 382 unique human kinases (Homo sapiens, UniProt Q5S007, G2019S); conditions: LRRK2 (G2019S), [ATP] 50 µM, compound 10 uM; for remaining activity at 10 µM: read-out: % Enzyme Activity (relative to DMSO controls)
T7 construct: purchased Reaction Biology (HotSpot contract assay)

382 unique human kinases [8] = target: T8, 382 unique human kinases (Homo sapiens, UniProt P17252); conditions: PKCa, 10 uM; for remaining activity at 10 µM: read-out: % Enzyme Activity (relative to DMSO controls)
T8 construct: purchased Reaction Biology (HotSpot contract assay)

382 unique human kinases [9] = target: T9, 382 unique human kinases (Homo sapiens, UniProt Q9H093); conditions: SNARK/NUAK2, 10 uM; for remaining activity at 10 µM: read-out: % Enzyme Activity (relative to DMSO controls)
T9 construct: purchased Reaction Biology (HotSpot contract assay)
T9 sequence (Q9H093 1-628): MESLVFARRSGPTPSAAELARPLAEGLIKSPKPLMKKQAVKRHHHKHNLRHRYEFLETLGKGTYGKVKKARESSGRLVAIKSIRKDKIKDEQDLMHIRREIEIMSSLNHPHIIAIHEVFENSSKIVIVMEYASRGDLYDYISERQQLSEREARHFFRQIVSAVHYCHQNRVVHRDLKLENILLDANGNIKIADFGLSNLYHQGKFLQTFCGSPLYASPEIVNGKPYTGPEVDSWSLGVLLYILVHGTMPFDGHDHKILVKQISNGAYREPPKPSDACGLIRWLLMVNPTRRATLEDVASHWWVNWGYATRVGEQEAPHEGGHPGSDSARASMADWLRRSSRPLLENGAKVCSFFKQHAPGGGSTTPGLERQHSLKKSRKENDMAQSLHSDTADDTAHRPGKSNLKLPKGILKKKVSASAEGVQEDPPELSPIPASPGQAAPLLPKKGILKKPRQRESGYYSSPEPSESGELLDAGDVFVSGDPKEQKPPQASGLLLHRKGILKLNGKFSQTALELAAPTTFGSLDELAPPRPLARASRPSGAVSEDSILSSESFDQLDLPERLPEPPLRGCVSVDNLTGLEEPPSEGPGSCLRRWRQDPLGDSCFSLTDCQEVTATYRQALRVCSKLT

382 unique human kinases [10] = target: T10, 382 unique human kinases (Homo sapiens, UniProt Q86V86); conditions: PIM3, [ATP] 20 µM
T10 construct: purchased Reaction Biology (HotSpot contract assay)

[11] = compound 10 uM, read-out: % Enzyme Activity (relative to DMSO controls)

| SMILES | remaining activity at 10 µM (382 unique human kinases [1]) | remaining activity at 10 µM (382 unique human kinases [2]) | remaining activity at 10 µM (382 unique human kinases [3]) | remaining activity at 10 µM (382 unique human kinases [4]) | remaining activity at 10 µM (382 unique human kinases [5]) | remaining activity at 10 µM (382 unique human kinases [6]) | remaining activity at 10 µM (382 unique human kinases [7]) | remaining activity at 10 µM (382 unique human kinases [8]) | remaining activity at 10 µM (382 unique human kinases [9]) | remaining activity at 10 µM (382 unique human kinases [10]; [11]) | also measured |
| --- | --- | --- | --- | --- | --- | --- | --- | --- | --- | --- | --- |
| CC(C)c1cc(-c2n[nH]c(=O)n2-c2ccc3c(ccn3C)c2)c(O)cc1O [Ganetespib (STA9090)] | 83.1% | 90.4% | 68.8% | 71.3% | – | – | – | – | – | – | – |
| CC(C)c1cc(-c2n[nH]c(=O)n2-c2ccc3c(ccn3C)c2)c(O)cc1O [Ganetespib] | – | – | – | – | 18.6% | 47% | 28.6% | 94.5% | 100% | 14.3% | remaining activity at 1 µM (382 unique human kinases [10]; compound 1 uM, read-out: % Enzyme Activity (relative to DMSO controls)): 61.1% |
| CCNC(=O)c1noc(-c2cc(C(C)C)c(O)cc2O)c1-c1ccc(CN2CCOCC2)cc1 [Luminespib] | – | – | – | – | 78.6% | 89.5% | 93.5% | 94% | 98.6% | 97.5% | % Enzyme Activity (relative to DMSO controls) (382 unique human kinases [5]): 78.51%; % Enzyme Activity (relative to DMSO controls) (382 unique human kinases [6]): 88.83%; % Enzyme Activity (relative to DMSO controls) (382 unique human kinases [7]): 91.80%; % Enzyme Activity (relative to DMSO controls) (382 unique human kinases [8]): 92.02%; % Enzyme Activity (relative to DMSO controls) (382 unique human kinases [9]): 96.83%; % Enzyme Activity (relative to DMSO controls) (382 unique human kinases [10]; compound 10 uM): 94.11% |
| CCNC(=O)c1noc(-c2cc(C(C)C)c(O)cc2O)c1-c1ccc(CN2CCOCC2)cc1 [Luminespib (AUY-922)] | 90.9% | 113% | 102% | 112% | – | – | – | – | – | – | % Enzyme Activity (relative to DMSO controls) (382 unique human kinases [1]): 89.68%; % Enzyme Activity (relative to DMSO controls) (382 unique human kinases [2]): 109.49%; % Enzyme Activity (relative to DMSO controls) (382 unique human kinases [3]): 99.92%; % Enzyme Activity (relative to DMSO controls) (382 unique human kinases [4]): 109.60% |
